The text below walks through data of publication PMC11342128, “Gold(I) and gold(III) carbene complexes from the marine betaine norzooanemonin: inhibition of thioredoxin reductase, antiproliferative and antimicrobial activity” (RSC Medicinal Chemistry, 2024).

The test system of assay [1] is Acinetobacter baumannii DSM30007. Put plainly: Antibacterial activity (MIC, curve fitting). The format is cell-based. The following applies: Table S12; ± standard error of the mean. The protocol: (§1) The antibacterial activity of all gold complexes was assessed against six pathogenic bacterial strains, including two Gram-positive species, i.e. Enterococcus faecium and methicillin-resistant Staphylococcus aureus (MRSA), and four Gram-negative species, i.e. Acinetobacter baumannii, Escherichia coli, Klebsiella pneumoniae, and Pseudomonas aeruginosa. Minimum inhibitory concentrations (MICs) were determined using a curve-fitting technique.
(§2) S2.1. Antibacterial Studies
(§3) Bacterial cultures were prepared by overnight aerobic incubation at 37 °C. Gram-negative strains were cultivated in Müller Hinton broth supplemented with 1% glucose at pH 7.2, while Gram-positive strains were grown in Trypticase soy yeast extract medium (TSY) with a composition of 30 g/l trypticase soy broth, 3 g/l yeast extract, and pH 7.2. The cultures were adjusted to an OD600 of 0.001, resulting in a final starting OD600 of 0.0005 for the subsequent tests. For testing, 25 μL of the prepared culture was combined with 25 μL of serially diluted test compounds in 384 well plates, following established protocols for different strains. Screening was performed at compound concentrations of 0.5, 5, and 50 µM, and for selected compounds, growth inhibition curves were recorded using DMSO stock solutions […]
(§4) Positive control compounds, namely linezolid (for MRSA strains), ciprofloxacin (for E. faecium and E. coli), and amikacin (for P. aeruginosa), were included. The maximum DMSO concentration in the assay […]
(§5) After an 18-hour incubation at 37 °C under moist conditions, the optical density at 600 nm was measured using a Fusion Universal Microplate Analyser (Perkin–Elmer, Waltham, USA). The minimum inhibitory concentration (MIC) values, representing the […]
(§6) fitting with Sigma Plot. The bacterial strains used included Gram-negative strains: Escherichia coli (DSM 1116), A. baumannii (DSM30007), K. pneumoniae (DSM111678), and Pseudomonas aeruginosa PA7 (DSM 24068); and Gram-positive strains: E. faecium (DSM20477) and Staphylococcus aureus MRSA

For assay [2], the system named is Escherichia coli DSM 1116. Put plainly: Antibacterial activity (MIC, curve fitting). The format is cell-based. The conditions noted are these: Table S12; ± standard error of the mean. On the procedure: as §1, §2, §3, §4, §5, §6
For assay [3], the system named is methicillin-resistant Staphylococcus aureus DSM 11822. Put plainly: Antibacterial activity (MIC, curve fitting). The following applies: Table S12; ± standard error of the mean. The format is cell-based. On the procedure: as §1, §2, §3, §4, §5, §6
Assay [4] relates to Pseudomonas aeruginosa DSM 24068. Put plainly: Antibacterial activity (MIC, curve fitting). The following applies: Table S12; ± standard error of the mean. The format is cell-based. On the procedure: as §1, §2, §3, §4, §5, §6
The test system of assay [5] is Vero E6 African green monkey kidney cells. Put plainly: Antiproliferative activity in non-tumour reference cell line. It is filed as cell-based. The following applies: for IC50: Vero E6 non-tumour reference cell line, SD in parentheses, n = 3; for Tumour selectivity: tumour cell lines in comparison to Vero E6: comparison of IC50 in tumour cell lines and non-tumour Vero E6. On the procedure: (§7) The antiproliferative potential of the gold–NHC complexes was determined in A549 lung carcinoma cells, MDA-MB-231 breast cancer cells, MCF-7 breast adenocarcinoma cells, and HT-29 colon carcinoma cells (Table 1). Vero E6 African green monkey kidney cells served as a reference cell line to check for possible tumour selectivity. Auranofin (AF) was used as an established reference drug.[15,17] […]
(§8) S2.2. Cytotoxicity and Anticancer Studies
(§9) Cell culture and cytotoxicity
(§10) Cell lines were sourced from DSMZ (German Collection of Microorganisms and Cell Cultures GmbH) and maintained through standard procedures in Dulbecco's Modified Eagle Medium (DMEM) supplemented with 10% fetal calf serum and 50 mg/L gentamycin. Antiproliferative effects were assessed using a well-established assay protocol. In brief, 100 μL volumes of A549 cells (13,243 cells per mL), HT-29 cells (14,657 cells per mL), MDA-MB-231 cells (6,613 cells per mL), or MCF-7 cells (6,917 cells per mL) were transferred into the wells of 96-well plates and incubated at 37°C/5% CO2 for 72 […]
(§11) Freshly prepared stock solutions of the compounds in DMSO were diluted with the respective cell culture medium to achieve graded concentrations (final concentration of DMSO: 0.1% v/v). After 72 hours (A549, HT-29) or 96 hours (MCF-7, MDA-MB-231) of exposure, the cell biomass was assessed through crystal violet staining, and the IC50 value was determined as the concentration causing 50% inhibition of cell proliferation compared to an untreated control. Results were calculated as the mean values of three independent experiments.

The next assay addresses TrxR from E. coli (Escherichia coli, UniProt P0A9P4). Put plainly: Inhibition of isolated bacterial TrxR, DTNB-based assay. It is filed as biochemical. On the set-up: purchased Sigma-Aldrich. The conditions noted are these: compounds at 0.5 µM; n = 2; Table S13. On the procedure:
The inhibition of isolated TrxR from E. coli was determined for the selected monocarbene gold(I/III) complexes 2a–c and 4b–c using a DTNB-based assay (Table 3). […] The inhibition of bacterial TrxR for compound 2a was investigated in our previous report (Table 3).
S2.3. Inhibition of bacterial TrxR from E. coli
The TrxR (E. coli) inhibition assay was performed according to previously published procedures.[8] The assay is partly based on the procedure developed by Lu et al[9] and makes use of the reduction of DTNB (5,5′-dithiobis-(2-nitrobenzoic acid)). Solutions of E. coli TrxR (10.1 U/mL) and E. coli thioredoxin (Trx) (312 μg/mL) (both purchased from Sigma-Aldrich) were prepared in distilled water. Stock solutions of the test compounds (2 mM) were prepared in DMSO and serially diluted with TE buffer (Tris-HCl 50 mM, EDTA 1 mM, pH 7.5). 20 μL of these solutions or TE buffer without the test compounds (positive control) were mixed with the TrxR solution (10 μL), the Trx solution (10 μL) and 100 µl of NADPH (200 μM) in TE buffer in a well on a 96-well plate. As a blank control, 200 μM NADPH in TE buffer (100 μL) mixed with a DMSO / buffer mixture (40 μL) was used (final concentrations of DMSO: 0.5% v/v). The plate was incubated for 75 min at 25°C with moderate shaking. After incubation, 100 μL of a reaction mixture (TE buffer containing 200 μM NADPH and 5 mM DTNB) was added to each well to initiate the reaction. After thorough mixing, the formation of 5-TNB was monitored by a microplate reader at 405 nm in 35 s intervals (10 measurements). The values were corrected by subtraction of the blank solution absorption values. The increase in concentration of 5-TNB followed a linear trend (r2≥ 0.990) and the enzymatic activities were calculated as the gradients (increase in absorbance per second) thereof. […]
for each test compound, where the highest test compound concentration was used and the enzyme solution was replaced by TE buffer. The inhibition is presented as the mean IC50 values and standard deviations obtained in three independent experiments.
Table S13. Activity of TrxR from E. coli in presence of compounds at 0.5 µM (n = 2, n.d.= not

For assay [6], the system named is MDA-MB-231 breast cancer cells. The experiment in a line: Antiproliferative activity, crystal violet assay. It is filed as cell-based. The conditions noted are these: 96 h exposure, SD in parentheses, n = 3. On the procedure:
as §7, §8, §9, §10, §11

In assay [7] the test system is HT-29 colon carcinoma cells. Put plainly: Antiproliferative activity, crystal violet assay. The conditions noted are these: 72 h exposure, SD in parentheses, n = 3. The format is cell-based. The protocol:
as §7, §8, §9, §10, §11

In assay [8] the test system is A549 lung carcinoma cells. The experiment in a line: Antiproliferative activity, crystal violet assay. The format is cell-based. The following applies: 72 h exposure, SD in parentheses, n = 3. The protocol:
as §7, §8, §9, §10, §11

For assay [9], the system named is MCF-7 breast adenocarcinoma cells. Put plainly: Antiproliferative activity, crystal violet assay. It is filed as cell-based. The conditions noted are these: 96 h exposure, SD in parentheses, n = 3. On the procedure:
as §7, §8, §9, §10, §11

Chain of TrxR from E. coli (P0A9P4 2-321): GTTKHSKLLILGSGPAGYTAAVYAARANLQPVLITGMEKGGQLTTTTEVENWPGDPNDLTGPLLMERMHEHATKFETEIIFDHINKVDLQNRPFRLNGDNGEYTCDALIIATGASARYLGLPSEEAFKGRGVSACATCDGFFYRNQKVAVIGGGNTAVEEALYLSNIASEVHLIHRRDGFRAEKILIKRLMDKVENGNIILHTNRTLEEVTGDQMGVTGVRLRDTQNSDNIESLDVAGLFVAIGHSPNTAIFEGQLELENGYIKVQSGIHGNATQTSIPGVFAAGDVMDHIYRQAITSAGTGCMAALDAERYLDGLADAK

With `Cn1cc(C(=O)O)[n+](C)[c]1[Au-]([Cl])([Cl])[c]1n(C)cc(C(=O)O)[n+]1C.[Cl-]` [5a], the “MIC, A. baumannii” value in assay [1] is > 100 µM. Further, the “MIC, E. coli” value in [2] was > 100 µM. In addition, the “MIC, MRSA” value in assay [3] was > 100 µM. The “MIC, P. aeruginosa” value in [4] is > 100 µM. Moreover, the IC50 in assay [5], in assay [6], in assay [7], in assay [8] and in assay [9] was > 100 µM in each case. Moreover, the “TrxR activity, % of control” value at TrxR from E. coli is on record as 91.6 % of control.

For `CCOC(=O)c1cn(C)[c]([Au-]([Cl])([Cl])[c]2n(C)cc(C(=O)OCC)[n+]2C)[n+]1C.F[B-](F)(F)F` [5c], the “MIC, A. baumannii” value in [1] was > 100 µM. Further, in assay [2], the “MIC, E. coli” value is > 100 µM. Moreover, the “MIC, MRSA” value in assay [3] stood at 23.15 ± 0 µM. Moreover, the “MIC, P. aeruginosa” value in assay [4] was > 100 µM. The IC50 – broadly, the point on the concentration scale where inhibition reaches its midpoint – in assay [5] was determined as 30.8 µM; in assay [6] it was 2.33 µM; in assay [7] it was 4.29 µM; in [8], 0.89 µM; in [9], 3.91 µM. Moreover, in [5], the “Tumour selectivity: tumour cell lines in comparison to Vero E6” value was “clear preference for the tumour cell lines”. Besides, the “TrxR activity, % of control” value at TrxR from E. coli is given as 93.5 % of control.

Consider `COC(=O)c1cn(C)[c]([Au-]([Cl])([Cl])[c]2n(C)cc(C(=O)OC)[n+]2C)[n+]1C.O=S(=O)([O-])C(F)(F)F` [5b], for which the “MIC, A. baumannii” value in assay [1] is > 100 µM. Moreover, in assay [2], the “MIC, E. coli” value is > 100 µM. In addition, the “MIC, MRSA” value in assay [3] is > 100 µM. Besides, the “MIC, P. aeruginosa” value in assay [4] is > 100 µM. For the same molecule, the IC50 in assay [5] was > 100 µM; in [6] it was 14.8 µM; in assay [7], 18.6 µM; in assay [8], 3.35 µM; in assay [9], 20 µM. In addition, in assay [5], the “Tumour selectivity: tumour cell lines in comparison to Vero E6” value is on record as “clear preference for the tumour cell lines”. Besides, the “TrxR activity, % of control” value at TrxR from E. coli is recorded as 90.8 % of control.
